Experimental findings from US20240342119A1, “COMPOSITION FOR TREATING HY[…] AND KELOIDS […] THI[…] AS ACTIVE INGREDIENT” (CEL[…]., priority 2021, published 2024) are described below.

The test system of this experiment is hypertrophic scars in rabbit ears. Nature of the experiment: rabbit ear hypertrophic scar model. Format: in vivo, New Zealand white rabbits. The following applies: 10% compound; for epidermal thickness of hypertrophic scar / scar elevation index (SEI) / collagen density (ratio of blue-stained area to total area): 0.5 mL applied daily for 14 days, compared to control and solvent-treated group; for epidermal thickness of hypertrophic scar: H&E, FIG. 9; for scar elevation index (SEI): FIG. 10; for collagen density (ratio of blue-stained area to total area): FIG. 11; for visual evaluation score of hypertrophic scar (dermatoscope, score 0-3 of Table 1): 0.5 mL applied daily, day 14, compared to control and solvent-treated group, FIG. 8. The source says: Eight female New Zealand white rabbits (2.6 to 3 kg) were anesthetized, and wounds were formed by removing the epidermis, dermis, and perichondrium of the ear skin of the rabbits using an 8 mm biopsy punch. Three wounds were formed in an ear area of each rabbit. The rabbit's surgical site was sterilized, and the formation of hypertrophic scars was induced through natural healing for 3 weeks.
After 3-week natural healing, the complete epithelialization and hypertrophic scar formation in scar areas were confirmed, and treatment was started for each test group. The test groups were classified into a normal group (normal tissue), a control (untreated scar/hypertrophic scar), test group 1 (solve application), test group 2 (CBM-N1 10%), test group 3 (CBM-N3 10%), test group 4 (CBM-N 10%), and test group 5 (CBM-N 10%).
Each test group was treated by applying 0.5 mL of drug daily for 2 weeks (14 days), and then a tissue autopsy was performed. The biopsied tissue was stored in a 10% formalin solution to form a tissue slide. The effectiveness of hypertrophic scar treatment was confirmed through dermatoscopy and histological evaluation.
The skin tissue areas of the control and test groups were observed using a dermatoscope on the start day and end day (Day 14 of treatment) of treatment, and depending on the degree of hypertrophic scar formation, scores were given for visual evaluation as shown in Table 1 below.
A paraffin block of the fixed ear tissue of a rabbit was prepared, and sliced to a thickness of 3 μm, thereby preparing a tissue slide. Following hydration, staining was performed using hematoxylin and eosin solutions. The stained tissue slides were photographed using a 200× microscope, and epithelial thicknesses were measured using ZEISS ZEN Microscope Software.
The fixed ear tissue of a rabbit was stained with a hematoxylin or eosin solution in the same manner as in the epidermal thickness analysis method, and the stained tissue slide was photographed at 50× magnification. Using ZEISS ZEN Microscope Software, the length from the epidermis to the cartilage was measured for the scar area and normal area, and the scar evaluation index (SEI) was calculated from the results. Here, the SEI is the value calculated by dividing ‘the length from the epidermis to the cartilage at the thickest point in the scar area’ by ‘the length from the epidermis to the cartilage in the normal skin area.’
A paraffin block of the fixed ear tissue of a rabbit was prepared, and sliced to a thickness of 3 μm, thereby preparing a tissue slide. Following hydration, staining was performed using Biebrich Scarlet-Acid Fuchsin solution for 5 minutes, and washing was performed and then staining was performed again with phosphotungstic acid/phosphomolybdic acid for 5 minutes.
Subsequently, staining was performed with aniline blue and an acetic acid solution, and the stained tissue slides were photographed at 400× magnification. In the photographs that were taken, the ratio of the blue-stained area, that is, the area occupied by collagen, to the total area was analyzed using Image J (The National Institutes of Health, USA).

In the case of `NC(=O)C[S+]([O-])C(c1ccccc1)c1ccccc1` (stereo not shown) [CBM-N1, 2-(benzhydrylsulfinyl)acetamide, reference compound], the “epidermal thickness of hypertrophic scar” value is “thin epidermal thicknesses”; the “scar elevation index (SEI)” value was “lower SEI values”; the “collagen density (ratio of blue-stained area to total area)” value is given as “lower collagen densities”; the “visual evaluation score of hypertrophic scar (dermatoscope, score 0-3 of Table 1)” value (“visual evaluation score” below) is reported as “much lower”.
`O=C(CSC(c1ccccc1)c1ccccc1)Nc1ccccc1` [CBM-N3, 2-(benzhydrylthio)-N-phenylacetamide]: the “epidermal thickness of hypertrophic scar” value is reported as “thin epidermal thicknesses”; the “scar elevation index (SEI)” value was “lower SEI values”; the “collagen density (ratio of blue-stained area to total area)” value was “lower collagen densities”; the “visual evaluation score” value is given as “much lower”.
For the molecule `O=C(C[S+]([O-])C(c1ccccc1)c1ccccc1)NCC1CCCO1` (stereo not shown) [CBM-N5, 2-(benzhydrylsulfinyl)-N-[(tetrahydrofuran-2-yl)methyl]acetamide], the “epidermal thickness of hypertrophic scar” value is “thin epidermal thicknesses”; the “scar elevation index (SEI)” value is “lower SEI values”; the “collagen density (ratio of blue-stained area to total area)” value is “lower collagen densities”; the “visual evaluation score” value was “much lower”.
As for `NC(=O)C[S+]([O-])C(c1ccc(F)cc1)c1ccc(F)cc1` (stereo not shown) [CBM-N9, 2-[bis(4-fluorophenyl)methanesulfinyl]acetamide], the “epidermal thickness of hypertrophic scar” value is “thin epidermal thicknesses”; the “scar elevation index (SEI)” value is reported as “lower SEI values”; the “collagen density (ratio of blue-stained area to total area)” value is on record as “lower collagen densities”; the “visual evaluation score” value is listed as “much lower”.
